Data as given in ChEMBL document CHEMBL5131481, “Topoisomerase IIα inhibitory and antiproliferative activity of dihydroxylated 2,6-diphenyl-4-fluorophenylpyridines: Design, synthesis, and structure-activity relationships” (Bioorg Med Chem Lett, 2022).

What was measured:
[1] = tested on: T47D; assay: Antiproliferative activity against human T47D cells assessed as inhibition of cell proliferation; format: functional, cell-based
[2] = molecular target: DNA topoisomerase 2-alpha (Homo sapiens) (UniProt P11388); assay: Inhibition of topoisomerase 2alpha (unknown origin) assessed as relaxation of supercoiled plasmid pBR322 DNA at 100 uM relative to control
[3] = molecular target: DNA topoisomerase 2-alpha (Homo sapiens) (UniProt P11388); assay: Inhibition of topoisomerase 2alpha (unknown origin) assessed as relaxation of supercoiled plasmid pBR322 DNA at 20 uM relative to control
[4] = tested on: HeLa; assay: Antiproliferative activity against human HeLa cells assessed as inhibition of cell proliferation; format: functional, cell-based
[5] = tested on: DU-145; assay: Antiproliferative activity against human DU-145 cells assessed as inhibition of cell proliferation; format: functional, cell-based
[6] = tested on: HCT-15; assay: Antiproliferative activity against human HCT-15 cells assessed as inhibition of cell proliferation; format: functional, cell-based

DNA topoisomerase 2-alpha (Homo sapiens), sequence (P11388 whole entry): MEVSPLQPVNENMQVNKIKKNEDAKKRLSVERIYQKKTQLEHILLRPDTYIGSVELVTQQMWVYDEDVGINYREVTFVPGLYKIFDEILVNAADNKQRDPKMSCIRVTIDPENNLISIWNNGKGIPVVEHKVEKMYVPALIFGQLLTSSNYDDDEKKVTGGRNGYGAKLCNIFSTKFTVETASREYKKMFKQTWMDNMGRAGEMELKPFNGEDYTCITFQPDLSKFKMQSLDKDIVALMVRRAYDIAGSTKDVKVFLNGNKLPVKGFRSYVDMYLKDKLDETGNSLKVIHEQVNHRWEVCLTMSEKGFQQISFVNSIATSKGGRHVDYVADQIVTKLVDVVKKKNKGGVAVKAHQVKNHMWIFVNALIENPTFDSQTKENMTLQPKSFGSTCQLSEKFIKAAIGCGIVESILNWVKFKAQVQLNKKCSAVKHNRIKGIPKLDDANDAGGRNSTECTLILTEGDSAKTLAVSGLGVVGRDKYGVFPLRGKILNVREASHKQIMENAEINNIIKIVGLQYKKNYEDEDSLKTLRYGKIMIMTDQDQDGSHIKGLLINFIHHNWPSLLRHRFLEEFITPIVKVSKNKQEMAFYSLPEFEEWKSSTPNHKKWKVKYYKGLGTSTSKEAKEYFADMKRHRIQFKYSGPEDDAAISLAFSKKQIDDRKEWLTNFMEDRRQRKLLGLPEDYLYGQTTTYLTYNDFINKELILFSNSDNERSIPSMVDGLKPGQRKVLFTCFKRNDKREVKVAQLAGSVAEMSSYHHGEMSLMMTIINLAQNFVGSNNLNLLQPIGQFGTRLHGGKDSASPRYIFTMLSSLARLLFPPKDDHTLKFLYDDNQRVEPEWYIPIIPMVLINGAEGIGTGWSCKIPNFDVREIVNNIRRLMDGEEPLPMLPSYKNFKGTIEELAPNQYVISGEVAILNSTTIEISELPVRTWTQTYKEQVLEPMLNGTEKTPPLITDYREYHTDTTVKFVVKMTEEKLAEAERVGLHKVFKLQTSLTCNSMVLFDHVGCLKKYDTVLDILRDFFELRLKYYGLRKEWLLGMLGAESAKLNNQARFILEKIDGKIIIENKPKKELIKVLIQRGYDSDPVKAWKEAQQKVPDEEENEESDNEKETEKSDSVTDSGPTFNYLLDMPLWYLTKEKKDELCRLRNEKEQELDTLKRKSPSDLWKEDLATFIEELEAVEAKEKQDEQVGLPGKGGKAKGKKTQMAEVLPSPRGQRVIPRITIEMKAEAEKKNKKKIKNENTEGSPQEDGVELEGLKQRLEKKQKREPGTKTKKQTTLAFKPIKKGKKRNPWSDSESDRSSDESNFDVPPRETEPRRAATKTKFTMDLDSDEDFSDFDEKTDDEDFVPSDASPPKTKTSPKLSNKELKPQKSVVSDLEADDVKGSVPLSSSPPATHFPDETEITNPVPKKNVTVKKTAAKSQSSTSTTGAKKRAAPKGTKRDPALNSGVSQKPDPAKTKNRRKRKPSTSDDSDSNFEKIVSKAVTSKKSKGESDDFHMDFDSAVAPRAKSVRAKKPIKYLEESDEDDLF

IC50 [1]	inhibition [2]	inhibition [3]	IC50 [4]	IC50 [5]	IC50 [6]	Compound
5.15 µM	59%	6.4%	16.9 µM	5.39 µM	13.9 µM	Oc1ccc(-c2cc(-c3ccc(OC(F)(F)F)cc3)cc(-c3ccc(O)cc3)n2)cc1
5 µM	43.7%	30.4%	8.08 µM	15.2 µM	5.02 µM	Oc1ccc(-c2cc(-c3ccc(F)cc3)cc(-c3cccc(O)c3)n2)cc1
4.37 µM	31.1%	10.8%	16 µM	11.2 µM	5.3 µM	Oc1cccc(-c2cc(-c3ccccc3F)cc(-c3cccc(O)c3)n2)c1
5.04 µM	43.4%	7.4%	14.1 µM	5.67 µM	1.73 µM	Oc1ccc(-c2cc(-c3cccc(OC(F)(F)F)c3)cc(-c3cccc(O)c3)n2)cc1
6.37 µM	76.6%	42.1%	14.3 µM	3.16 µM	5.63 µM	Oc1ccc(-c2cc(-c3ccccc3F)cc(-c3cccc(O)c3)n2)cc1
9.84 µM	42.2%	4.3%	44.6 µM	16 µM	7.76 µM	Oc1ccc(-c2cc(-c3ccccc3OC(F)(F)F)cc(-c3ccc(O)cc3)n2)cc1
3.51 µM	73.9%	36.1%	14.2 µM	2.7 µM	3.07 µM	Oc1ccc(-c2cc(-c3cccc(F)c3)cc(-c3cccc(O)c3)n2)cc1
2.87 µM	44.1%	4.1%	17.3 µM	> 50 µM	6.44 µM	Oc1ccc(-c2cc(-c3ccc(C(F)(F)F)cc3)cc(-c3cccc(O)c3)n2)cc1
3.21 µM	61.9%	2.2%	17.4 µM	2.75 µM	5.74 µM	Oc1ccc(-c2cc(-c3ccccc3C(F)(F)F)cc(-c3cccc(O)c3)n2)cc1
